Assay results as given in article PMC4301629 (PLoS ONE, 2015).

What was measured:
α1A-AR [1] = test: Ca2+ transient response (FLIPR, fluo3) in α1A-AR transduced HEK-293/EBNA cells; assay type: cell-based; conditions: α1A-AR HEK-293/EBNA; for effect of antagonist on Iso-evoked Ca2+ response: RS100329 10 nM, ICI 118551 10 nM, atenolol 1 μM
Experimental: (§1) Prior to experiments, cells were transduced with baculovirus strains designed for transient expression of α1A-AR or aldehyde oxidase (negative control). This was performed by incubating cells with virus (MOI 100–150) for 3 to 4 h, followed by exchange into fresh serum free growth medium supplemented with 4 mM sodium butyrate (NaBu). Cells were grown for another 14 to 18 h and then examined for agonist-evoked responses in transient Ca^2+ release, IP accumulation or pERK activation assays. The surface receptor expression density was determined by flow cytometry via immunofluorescence labeling of an N-terminal HA epitope tag on the receptor and radioligand binding in partially purified membranes.
(§2) Cells were resuspended in Hank’s balanced salt solution (Invitrogen) supplemented with 2 mM CaCl2, 10 mM HEPES pH 7.4, 2.5 mM probenecid, plus 1g/L each of glucose and bovine serum albumin (BSA), and seeded in poly-D-lysine coated 96-well black plates with transparent bottom (Costar) at a density of 50,000 cells/0.1 mL per well. Cells were then incubated for 1 h at 37°C with an additional 0.1 mL of buffer containing 4 μM fluo3-AM that was diluted from a stock solution containing 1 mM fluo3-AM dye in DMSO with 10% pluronic acid. After dye loading incubation, plates were washed twice with 100 μL of buffer and refilled with 100 μL of assay buffer. In experiments testing the effect of antagonists, 25 μL of buffer from wells of washed cells were replaced with 25 μL of vehicle or 4× antagonist solution. Pre-incubation of ligand with dye-loaded cells proceeded for 5–30 minutes immediately prior to measurements of agonist-evoked responses. Agonist-evoked Ca^2+ mobilization responses of cell populations were monitored at room temperature simultaneously in all wells of the assay plate using the plate-imaging fluorometric reader FLIPR (MDS Analytical Technologies, Sunnyvale, CA). […] The amplitudes of Ca^2+ transient responses are reported as ΔF/F0, or fold-change in Ca^2+ dye fluorescence relative to the baseline signal ΔF/F0 = (F-F0)/F0 +1 (where ΔF is maximal fluorescence intensity observed following agonist application, F0 = baseline fluorescence, or average intensity measured over the 10 s interval prior to agonist application). Image acquisition rates were varied from 1 Hz during the first 100 s of measurements to 0.5 Hz for the remaining time of the recording.
Graphs shown reflect either pooled or representative data (see figure legends). For concentration-response analysis, results from Ca^2+ mobilization experiments were plotted as ΔF/F0 vs. agonist concentration and fit to a sigmoidal concentration-response equation using the GraphPad Prism software package. In cases where biphasic concentration-response curves were observed data were fit to a two-site concentration-response model: F(X)=R0+(Rmax−R0)[Fr1/(1+10^X-logEC50,1)+(1−Fr1)/(1+10^X-logEC50,2)] (1) , where X is the logarithm of the agonist concentration, R0 and Rmax are respectively the response minimum and maximum; Fr1 is the response fraction attributable to receptor characterized by half effective concentration of the first response phase (EC50,1), with the reminder response attributable to the second half effective concentration (EC50,2). For radioligand binding experiments, B max values were calculated from maximum binding using the equation B max = (SB × ([…] + [L])/[L]), where SB is the specific binding expressed as fmol per mg of membrane protein, and [L] is the ligand concentration.

α1A-AR [2] = conditions: for α1A-AR; cited from earlier work
β2-AR = target: T1, β2-AR (Homo sapiens, UniProt P07550); test: Ca2+ transient response (FLIPR, fluo3) in untransduced / negative control HEK-293/EBNA cells; assay type: cell-based; conditions: non-transduced control cells; ICI 118551 10 nM, RS100329 10 nM, atenolol 1 μM
T1 construct: HEK-293/EBNA cells are known to express β2-AR endogenously; endogenous in cells; host or cells: HEK-293/EBNA (untransduced or negative-control transduced)
T1 sequence (P07550 whole entry): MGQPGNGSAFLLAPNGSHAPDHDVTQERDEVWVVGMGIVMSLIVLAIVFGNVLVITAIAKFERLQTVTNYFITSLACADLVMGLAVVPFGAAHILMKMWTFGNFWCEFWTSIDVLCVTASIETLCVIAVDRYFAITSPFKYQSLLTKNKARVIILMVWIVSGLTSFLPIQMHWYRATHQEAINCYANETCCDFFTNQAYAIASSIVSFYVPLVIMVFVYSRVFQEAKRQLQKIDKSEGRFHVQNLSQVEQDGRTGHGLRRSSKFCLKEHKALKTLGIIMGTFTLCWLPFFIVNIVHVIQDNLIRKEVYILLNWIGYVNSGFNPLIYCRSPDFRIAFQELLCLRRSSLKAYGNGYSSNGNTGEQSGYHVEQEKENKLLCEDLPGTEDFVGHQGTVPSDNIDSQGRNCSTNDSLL
Experimental: as §1
Cells were resuspended in Hank’s balanced salt solution (Invitrogen) supplemented with 2 mM CaCl2, 10 mM HEPES pH 7.4, 2.5 mM probenecid, plus 1g/L each of glucose and bovine serum albumin (BSA), and seeded in poly-D-lysine coated 96-well black plates with transparent bottom (Costar) at a density of 50,000 cells/0.1 mL per well. […] Agonist-evoked Ca^2+ mobilization responses of cell populations were monitored at room temperature simultaneously in all wells of the assay plate using the plate-imaging fluorometric reader FLIPR (MDS Analytical Technologies, Sunnyvale, CA). […]

α1A-AR [3] = target: T2, α1A-AR (Homo sapiens, UniProt P35348); test: Ca2+ transient response (FLIPR) in α1A-AR_CHO stable cells; assay type: cell-based; parameters: expressed in transfected cells; conditions: antagonist at 100 nM
T2 sequence (P35348 1-466): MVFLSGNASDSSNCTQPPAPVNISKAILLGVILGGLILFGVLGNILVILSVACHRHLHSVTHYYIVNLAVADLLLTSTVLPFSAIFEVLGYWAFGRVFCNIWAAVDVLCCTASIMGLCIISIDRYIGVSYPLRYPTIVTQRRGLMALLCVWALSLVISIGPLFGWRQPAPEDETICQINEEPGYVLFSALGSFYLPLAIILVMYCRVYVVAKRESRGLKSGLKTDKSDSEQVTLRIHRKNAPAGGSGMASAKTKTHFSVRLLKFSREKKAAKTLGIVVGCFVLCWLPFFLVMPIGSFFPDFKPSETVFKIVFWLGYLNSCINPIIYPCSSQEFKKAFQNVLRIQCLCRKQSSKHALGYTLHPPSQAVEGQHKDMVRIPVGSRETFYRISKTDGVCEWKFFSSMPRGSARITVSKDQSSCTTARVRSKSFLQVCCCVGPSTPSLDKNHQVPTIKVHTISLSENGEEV
Experimental: as §2, with “In experiments testing the effect of antagonists, 25 μL of buffer from wells of washed cells were replaced with 25 μL of vehicle or 4× antagonist solution. Pre-incubation of ligand with dye-loaded cells proceeded for 5–30 minutes immediately prior to measurements of agonist-evoked responses.” left out, “Image acquisition rates were varied from 1 Hz during the first 100 s of measurements to 0.5 Hz for the remaining time of the recording.” left out
IP1, IP2, and IP3 levels were determined via LC-MS. […]

α1A-AR [4] = target: T2, α1A-AR; test: IP accumulation (IP-One HTRF) in α1A-AR transduced HEK-293/EBNA cells; assay type: cell-based; parameters: expressed in transfected cells; host or cells: HEK-293/EBNA (baculovirus transduction, NaBu induction); conditions: 10 nM antagonist preincubation; large rightward shift in A-61603 potency
Experimental: as §1
After 10–20 minutes, 10 μL of agonist was added followed by incubation for 5 to 30 minutes. Stimulation was stopped by addition of lysis buffer. Second messenger levels were determined using a homogeneous immunoassay method with time-resolved FRET detection (IP-One HTRF, Cisbio International) according to protocols provided by the supplier. Sample fluorescence was measured with a Nanoscan plate reader (IOM, Berlin). Each data point represents the average of quadruplicate determinations and each experiment was performed at least two times independently.

Row | effect of antagonist on Iso-evoked Ca2+ response (β2-AR) | effect of antagonist pretreatment on Iso Ca2+ response (α1A-AR [3]) | effect of antagonist on A-61603-stimulated IP accumulation (α1A-AR [4]) | Compound | attenuation of responses to high Iso concentrations (α1A-AR [1]; ICI 118551 at 10 nM) | effect of antagonist on Iso-evoked Ca2+ response (α1A-AR [1]) | pKB (α1A-AR [2])
1 |  |  |  | Cc1ccc(OCC(O)C(C)NC(C)C)c2c1CCC2 (stereo not shown) [ICI 118551] | ~50% | abolished responses to low Iso concentrations | 
2 | ineffective | blocked | significantly attenuated IP accumulation | Cc1c[nH]c(=O)n(CCCN2CCN(c3ccccc3OCC(F)(F)F)CC2)c1=O [RS100329] |  | virtually complete blocking of the low potency phase | 9.6
